According to US20240383874A1, “BENZENE RING DERIVATIVE, AND COMPOSITION AND PHARMACEUTICAL USE THEREOF” (Xizang Haisco Pharmaceutical Co., Ltd., priority 2020, published 2024):
Structures can show the parent of a compound that is named as a salt. Where two headings read alike, the source gives them in different places.

Test system: 22RV1 cells
Assay: Experiment 2 on inhibiting 22RV1 cell proliferation (7 days, CellTiter-Glo)
Format: cell-based
Conditions: 1% css-FBS phenol red-free medium, incubated with compound 7 days, read-out: IC50 values on proliferation inhibition of 22RV1 cells
Protocol: Prostate cancer cells 22RV1 were purchased from ATCC, the cell medium was RPMI 1640+10% FBS, and the cells were cultured in an incubator at 37° C. under 5% CO2. On day 1, the cells in an exponential phase were collected. With a 1% css-FBS phenol red-free medium, the cell suspension was adjusted to a corresponding concentration, plated at 2000 cells/well and incubated overnight. On day 2, compounds at different concentrations were added, and the plate was placed in the incubator and incubated for further 7 days. After the incubation was completed, according to operation instructions for a CellTiter-Glo kit (Promega, G7573), 50 μL of CTG solution, which was already pre-melted and equilibrated to room temperature, was added to each well, and the mixtures were uniformly mixed for 2 min using a microplate shaker. The plate was placed at room temperature for 10 min, and then fluorescence signal values were measured using a microplate reader (PHERAstar FSX). The results were processed according to formula (2), the survival rate of the compound at different concentrations was calculated, and the IC50 value of the compound with a survival rate of 50% was calculated using origin9.2 software with DoseResp function, wherein RLU compound was the readout of the treated group, and RLU control was the average value of the DMSO vehicle control group.

CC(C)(c1ccc(OCc2ccnc(N3CC4(CCN(CC5CN(c6ccc7c(c6)C(=O)N(C6CCC(=O)NC6=O)C7=O)C5)CC4)C3)n2)cc1)c1cc(Cl)cc(C#N)c1 (centres unmarked) [Compound 70 trifluoroacetate, 3-chloro-5-(2-(4-((2-(7-((1-(2-(2,6-dioxopiperidin-3-yl)-1,3-dioxoisoindolin-5-yl)azetidin-3-yl)methyl)-2,7-diazaspiro[3.5]nonan-2-yl)pyrimidin-4-yl)methoxy)phenyl)propan-2-yl)benzonitrile]
IC50 (Homo sapiens, 22Rv1, 168 h): 612 nM

CC(C)(c1ccc(OCc2ccnc(N3CCN(C4CCN(CC5CCN(c6ccc7c(c6)C(=O)N(C6CCC(=O)NC6=O)C7=O)CC5)CC4)CC3)n2)cc1)c1cc(Cl)cc(C#N)c1 (centres unmarked) [Compound 49 trifluoroacetate, 3-chloro-5-(2-(4-((2-(4-(1-((1-(2-(2,6-dioxopiperidin-3-yl)-1,3-dioxoisoindolin-5-yl)piperidin-4-yl)methyl)piperidin-4-yl)piperazin-1-yl)pyrimidin-4-yl)methoxy)phenyl)propan-2-yl)benzonitrile]
IC50 (Homo sapiens, 22Rv1, 168 h): 494 nM

CC(C)(c1ccc(OCc2ccnc(N3CC4CN(C5CCN(CC6CCN(c7ccc8c(c7)C(=O)N(C7CCC(=O)NC7=O)C8=O)CC6)CC5)CC4C3)n2)cc1)c1cc(Cl)cc(C#N)c1 (centres unmarked) [Compound 82 trifluoroacetate, 3-chloro-5-(2-(4-((2-(5-(1-((1-(2-(2,6-dioxopiperidin-3-yl)-1,3-dioxoisoindolin-5-yl)piperidin-4-yl)methyl)piperidin-4-yl)hexahydropyrrolo[3,4-c]pyrrol-2(1H)-yl)pyrimidin-4-yl)methoxy)phenyl)propan-2-yl)benzonitrile]
IC50 (Homo sapiens, 22Rv1, 168 h): 413 nM

CC(C)(c1ccc(OCc2ccnc(N3CCN(C4CCN(CC5CCN(c6ccc7c(c6)C(=O)N(C6CCC(=O)NC6=O)C7=O)CC5)C4)CC3)n2)cc1)c1cc(Cl)cc(C#N)c1 (centres unmarked) [Compound 63 trifluoroacetate, 3-chloro-5-(2-(4-((2-(4-(1-((1-(2-(2,6-dioxopiperidin-3-yl)-1,3-dioxoisoindolin-5-yl)piperidin-4-yl)methyl)pyrrolidin-3-yl)piperazin-1-yl)pyrimidin-4-yl)methoxy)phenyl)propan-2-yl)benzonitrile]
IC50 (Homo sapiens, 22Rv1, 168 h): 593 nM

CC(C)(c1ccc(OCc2ccnc(N3CCC4(CC3)CN(C3CCN(C5CN(c6ccc7c(c6)C(=O)N(C6CCC(=O)NC6=O)C7=O)C5)CC3)C4)n2)cc1)c1cc(Cl)cc(C#N)c1 (centres unmarked) [Compound 75 trifluoroacetate, 3-chloro-5-(2-(4-((2-(2-(1-(1-(2-(2,6-dioxopiperidin-3-yl)-1,3-dioxoisoindolin-5-yl)azetidin-3-yl)piperidin-4-yl)-2,7-diazaspiro[3.5]nonan-7-yl)pyrimidin-4-yl)methoxy)phenyl)propan-2-yl)benzonitrile]
IC50 (Homo sapiens, 22Rv1, 168 h): 275 nM

Cn1c(=O)n(C2CCC(=O)NC2=O)c2cccc(N3CCC(C4CCN(CC5CCN(c6nccc(COc7ccc(C(C)(C)c8cc(Cl)cc(C#N)c8)cc7)n6)CC5)CC4)CC3)c21 (centres unmarked) [Compound 85 trifluoroacetate, 3-chloro-5-(2-(4-((2-(4-((1′-(1-(2,6-dioxopiperidin-3-yl)-3-methyl-2-oxo-2,3-dihydro-1H-benzo[d]imidazol-4-yl)-[4,4′-bipiperidin]-1-yl)methyl)piperidin-1-yl)pyrimidin-4-yl)methoxy)phenyl)propan-2-yl)benzonitrile]
IC50 (Homo sapiens, 22Rv1, 168 h): 316 nM

CC(C)(c1ccc(OCc2ccnc(N3CCC(N4CCC(CN5CCN(c6cccc7c6C(=O)N(C6CCC(=O)NC6=O)C7=O)CC5)CC4)CC3)n2)cc1)c1cc(Cl)cc(C#N)c1 (centres unmarked) [Compound 40 trifluoroacetate, 3-chloro-5-(2-(4-((2-(4-((4-(2-(2,6-dioxopiperidin-3-yl)-1,3-dioxoisoindolin-4-yl)piperazin-1-yl)methyl)-[1,4′-bipiperidin]-1′-yl)pyrimidin-4-yl)methoxy)phenyl)propan-2-yl)benzonitrile]
IC50 (Homo sapiens, 22Rv1, 168 h): 764 nM

CC(C)(c1ccc(OCc2ccnc(N3CCN(CC4CCN(C5CCN(c6ccc7c(c6)C(=O)N(C6CCC(=O)NC6=O)C7=O)CC5)CC4)CC3)n2)cc1)c1cc(Cl)c(OCCCl)c(C#N)c1 (centres unmarked) [Compound 11, 3-chloro-2-(2-chloroethoxy)-5-(2-(4-((2-(4-((1′-(2-(2,6-dioxopiperidin-3-yl)-1,3-dioxoisoindolin-5-yl)-[1,4′-bipiperidin]-4-yl)methyl)piperazin-1-yl)pyrimidin-4-yl)methoxy)phenyl)propan-2-yl)benzonitrile]
IC50: 356 nM

CC(C)(c1ccc(OCc2ccnc(N3CC4(CCN(C5CCN(C6CN(c7ccc8c(c7)C(=O)N(C7CCC(=O)NC7=O)C8=O)C6)CC5)CC4)C3)n2)cc1)c1cc(Cl)c(OCCCl)c(C#N)c1 (centres unmarked) [Compound 23, 3-chloro-2-(2-chloroethoxy)-5-(2-(4-((2-(7-(1-(1-(2-(2,6-dioxopiperidin-3-yl)-1,3-dioxoisoindolin-5-yl)azetidin-3-yl)piperidin-4-yl)-2,7-diazaspiro[3.5]nonan-2-yl)pyrimidin-4-yl)methoxy)phenyl)propan-2-yl)benzonitrile]
IC50: 500 nM

CCOc1c(Cl)cc(C(C)(C)c2ccc(OCc3ccnc(N4CCC5(CC4)CC(N4CCC(CN6CCC(c7ccc8c(c7)n(C)c(=O)n8C7CCC(=O)NC7=O)CC6)CC4)C5)n3)cc2)cc1C#N (centres unmarked) [Compound 109 trifluoroacetate, 3-chloro-5-(2-(4-((2-(2-(4-((4-(1-(2,6-dioxopiperidin-3-yl)-3-methyl-2-oxo-2,3-dihydro-1H-benzo[d]imidazol-5-yl)piperidin-1-yl)methyl)piperidin-1-yl)-7-azaspiro[3.5]nonan-7-yl)pyrimidin-4-yl)methoxy)phenyl)propan-2-yl)-2-ethoxybenzonitrile]
IC50 (Homo sapiens, 22Rv1, 168 h): 330 nM

CC(C)(c1ccc(OCc2ccnc(N3CCN(C4CN(CC5CCN(c6ccc7c(c6)C(=O)N(C6CCC(=O)NC6=O)C7=O)C5)C4)CC3)n2)cc1)c1cc(Cl)cc(C#N)c1 (centres unmarked) [Compound 58 trifluoroacetate, 3-chloro-5-(2-(4-((2-(4-(1-((1-(2-(2,6-dioxopiperidin-3-yl)-1,3-dioxoisoindolin-5-yl)pyrrolidin-3-yl)methyl)azetidin-3-yl)piperazin-1-yl)pyrimidin-4-yl)methoxy)phenyl)propan-2-yl)benzonitrile]
IC50 (Homo sapiens, 22Rv1, 168 h): 744 nM

CC(C)(c1ccc(OCc2ccnc(N3CCC4(CC3)CN(C3CCN(C5CN(c6ccc7c(c6)C(=O)N(C6CCC(=O)NC6=O)C7=O)C5)CC3)C4)n2)cc1)c1cc(Cl)c(OCCCl)c(C#N)c1 (centres unmarked) [Compound 20, 3-chloro-2-(2-chloroethoxy)-5-(2-(4-((2-(2-(1-(1-(2-(2,6-dioxopiperidin-3-yl)-1,3-dioxoisoindolin-5-yl)azetidin-3-yl)piperidin-4-yl)-2,7-diazaspiro[3.5]nonan-7-yl)pyrimidin-4-yl)methoxy)phenyl)propan-2-yl)benzonitrile]
IC50: 954 nM

CC(C)(c1ccc(OCc2ccnc(N3CCC4(CC3)CN(C3CN(C5CN(c6ccc7c(c6)C(=O)N(C6CCC(=O)NC6=O)C7=O)C5)C3)C4)n2)cc1)c1cc(Cl)cc(C#N)c1 (centres unmarked) [Compound 76 trifluoroacetate, 3-chloro-5-(2-(4-((2-(2-(1′-(2-(2,6-dioxopiperidin-3-yl)-1,3-dioxoisoindolin-5-yl)-[1,3′-biazetidin]-3-yl)-2,7-diazaspiro[3.5]nonan-7-yl)pyrimidin-4-yl)methoxy)phenyl)propan-2-yl)benzonitrile]
IC50 (Homo sapiens, 22Rv1, 168 h): 475 nM

COc1c(Cl)cc(C(C)(C)c2ccc(OCc3ccnc(N4CCC(CN5CCC(c6ccc7c(c6)n(C)c(=O)n7C6CCC(=O)NC6=O)CC5)CC4)n3)cc2)cc1C#N (centres unmarked) [Compound 92 trifluoroacetate, 3-chloro-5-(2-(4-((2-(4-((4-(1-(2,6-dioxopiperidin-3-yl)-3-methyl-2-oxo-2,3-dihydro-1H-benzo[d]imidazol-5-yl)piperidin-1-yl)methyl)piperidin-1-yl)pyrimidin-4-yl)methoxy)phenyl)propan-2-yl)-2-methoxybenzonitrile]
IC50 (Homo sapiens, 22Rv1, 168 h): 900 nM

CC(C)(c1ccc(OCc2ccnc(N3CCC(N4CC(CN5CCN(c6cccc7c6C(=O)N(C6CCC(=O)NC6=O)C7=O)CC5)C4)CC3)n2)cc1)c1cc(Cl)cc(C#N)c1 (centres unmarked) [Compound 65 trifluoroacetate, 3-chloro-5-(2-(4-((2-(4-(3-((4-(2-(2,6-dioxopiperidin-3-yl)-1,3-dioxoisoindolin-4-yl)piperazin-1-yl)methyl)azetidin-1-yl)piperidin-1-yl)pyrimidin-4-yl)methoxy)phenyl)propan-2-yl)benzonitrile]
IC50 (Homo sapiens, 22Rv1, 168 h): 759 nM

CC(C)(c1ccc(OCc2ccnc(N3CCC(CN4CCN(c5cccc6c5C(=O)N(C5CCC(=O)NC5=O)C6=O)CC4)CC3)n2)cc1)c1cc(Cl)cc(C#N)c1 (centres unmarked) [Compound 39 trifluoroacetate, 3-chloro-5-(2-(4-((2-(4-((4-(2-(2,6-dioxopiperidin-3-yl)-1,3-dioxoisoindolin-4-yl)piperazin-1-yl)methyl)piperidin-1-yl)pyrimidin-4-yl)methoxy)phenyl)propan-2-yl)benzonitrile]
IC50 (Homo sapiens, 22Rv1, 168 h): 936 nM

Cn1c(=O)n(C2CCC(=O)NC2=O)c2ccc(N3CCC(C4CCN(CC5CN(c6nccc(COc7ccc(C(C)(C)c8cc(Cl)cc(C#N)c8)cc7)n6)C5)CC4)CC3)cc21 (centres unmarked) [Compound 103 trifluoroacetate, 3-chloro-5-(2-(4-((2-(3-((1′-(1-(2,6-dioxopiperidin-3-yl)-3-methyl-2-oxo-2,3-dihydro-1H-benzo[d]imidazol-5-yl)-[4,4′-bipiperidin]-1-yl)methyl)azetidin-1-yl)pyrimidin-4-yl)methoxy)phenyl)propan-2-yl)benzonitrile]
IC50 (Homo sapiens, 22Rv1, 168 h): 823 nM
